One block for each molecule: values may come before it.
What was measured:
Test in all cases: Cysteine liganding, probe competition
Format in all cases: binding
UniProt Q149N8 = biological target: T1, UniProt Q149N8 (Homo sapiens, UniProt Q149N8); conditions: read-out: percent_inhibition
T1 construct: 200 μL of lysate containing 5 mg/ml proteome was treated with 2 μL of 100× compound stock; endogenous in cells
From the text: (§1) The following 96-well sample prep protocol was used for sample preparation.

UniProt Q5VTB9 = biological target: T2, UniProt Q5VTB9 (Homo sapiens, UniProt Q5VTB9); conditions: read-out: percent_inhibition
T2 construct: 200 μL of lysate containing 5 mg/ml proteome was treated with 2 μL of 100× compound stock; endogenous in cells
From the text: as §1

UniProt Q8N653 = biological target: T3, UniProt Q8N653 (Homo sapiens, UniProt Q8N653); conditions: read-out: percent inhibition
T3 construct: Cells were resuspended in cold PBS on ice and sonicated with a probe sonicator to achieve lysis; endogenous in cells
From the text: as §1

UniProt Q96AX9 = biological target: T4, UniProt Q96AX9 (Homo sapiens, UniProt Q96AX9)
T4 construct: Cells were resuspended in cold PBS on ice and sonicated with a probe sonicator to achieve lysis; endogenous in cells
From the text: as §1

UniProt Q9HAT8 = biological target: T5, UniProt Q9HAT8 (Homo sapiens, UniProt Q9HAT8)
T5 construct: 200 μL of lysate containing 5 mg/ml proteome was treated with 2 μL of 100× compound stock; endogenous in cells
From the text: as §1

UniProt P14373 = biological target: T6, UniProt P14373 (Homo sapiens, UniProt P14373); conditions: 100 uM
T6 construct: 200 μL of lysate containing 5 mg/ml proteome was treated with 2 μL of 100× compound stock; endogenous in cells
From the text: as §1

UniProt Q86XN8 = biological target: T7, UniProt Q86XN8 (Homo sapiens, UniProt Q86XN8); conditions: 100 uM
T7 construct: Cells were resuspended in cold PBS on ice and sonicated with a probe sonicator to achieve lysis; endogenous in cells
From the text: as §1

UniProt Q9C019 = biological target: T8, UniProt Q9C019 (Homo sapiens, UniProt Q9C019); conditions: 100 uM
T8 construct: 200 μL of lysate containing 5 mg/ml proteome was treated with 2 μL of 100× compound stock; endogenous in cells
From the text: as §1

UniProt O15344 = biological target: T9, UniProt O15344 (Homo sapiens, UniProt O15344); conditions: 500 uM
T9 construct: Cells were resuspended in cold PBS on ice and sonicated with a probe sonicator to achieve lysis; endogenous in cells
From the text: as §1

UniProt Q7Z6E9 = biological target: T10, UniProt Q7Z6E9 (Homo sapiens, UniProt Q7Z6E9); conditions: read-out: KB02_100 uM_percent_inhibition
T10 construct: 200 μL of lysate containing 5 mg/ml proteome was treated with 2 μL of 100× compound stock; endogenous in cells
From the text: as §1

UniProt Q96EP0 = biological target: T11, UniProt Q96EP0 (Homo sapiens, UniProt Q96EP0); conditions: 500 uM
T11 construct: 200 μL of lysate containing 5 mg/ml proteome was treated with 2 μL of 100× compound stock; endogenous in cells
From the text: as §1

UniProt Q96PU5 = biological target: T12, UniProt Q96PU5 (Homo sapiens, UniProt Q96PU5)
T12 construct: Cells were resuspended in cold PBS on ice and sonicated with a probe sonicator to achieve lysis; endogenous in cells
From the text: as §1

UniProt Q9BYV6 = biological target: T13, UniProt Q9BYV6 (Homo sapiens, UniProt Q9BYV6); conditions: read-out: KB02_500 uM_percent_inhibition
T13 construct: 200 μL of lysate containing 5 mg/ml proteome was treated with 2 μL of 100× compound stock; endogenous in cells
From the text: as §1

UniProt Q9C040 = biological target: T14, UniProt Q9C040 (Homo sapiens, UniProt Q9C040)
T14 construct: 200 μL of lysate containing 5 mg/ml proteome was treated with 2 μL of 100× compound stock; endogenous in cells
From the text: as §1

UniProt Q9NRJ4 = biological target: T15, UniProt Q9NRJ4 (Homo sapiens, UniProt Q9NRJ4); conditions: read-out: KB02_100 uM_percent_inhibition
T15 construct: 200 μL of lysate containing 5 mg/ml proteome was treated with 2 μL of 100× compound stock; endogenous in cells
From the text: as §1

T12 sequence (Q96PU5 whole entry, change not shown): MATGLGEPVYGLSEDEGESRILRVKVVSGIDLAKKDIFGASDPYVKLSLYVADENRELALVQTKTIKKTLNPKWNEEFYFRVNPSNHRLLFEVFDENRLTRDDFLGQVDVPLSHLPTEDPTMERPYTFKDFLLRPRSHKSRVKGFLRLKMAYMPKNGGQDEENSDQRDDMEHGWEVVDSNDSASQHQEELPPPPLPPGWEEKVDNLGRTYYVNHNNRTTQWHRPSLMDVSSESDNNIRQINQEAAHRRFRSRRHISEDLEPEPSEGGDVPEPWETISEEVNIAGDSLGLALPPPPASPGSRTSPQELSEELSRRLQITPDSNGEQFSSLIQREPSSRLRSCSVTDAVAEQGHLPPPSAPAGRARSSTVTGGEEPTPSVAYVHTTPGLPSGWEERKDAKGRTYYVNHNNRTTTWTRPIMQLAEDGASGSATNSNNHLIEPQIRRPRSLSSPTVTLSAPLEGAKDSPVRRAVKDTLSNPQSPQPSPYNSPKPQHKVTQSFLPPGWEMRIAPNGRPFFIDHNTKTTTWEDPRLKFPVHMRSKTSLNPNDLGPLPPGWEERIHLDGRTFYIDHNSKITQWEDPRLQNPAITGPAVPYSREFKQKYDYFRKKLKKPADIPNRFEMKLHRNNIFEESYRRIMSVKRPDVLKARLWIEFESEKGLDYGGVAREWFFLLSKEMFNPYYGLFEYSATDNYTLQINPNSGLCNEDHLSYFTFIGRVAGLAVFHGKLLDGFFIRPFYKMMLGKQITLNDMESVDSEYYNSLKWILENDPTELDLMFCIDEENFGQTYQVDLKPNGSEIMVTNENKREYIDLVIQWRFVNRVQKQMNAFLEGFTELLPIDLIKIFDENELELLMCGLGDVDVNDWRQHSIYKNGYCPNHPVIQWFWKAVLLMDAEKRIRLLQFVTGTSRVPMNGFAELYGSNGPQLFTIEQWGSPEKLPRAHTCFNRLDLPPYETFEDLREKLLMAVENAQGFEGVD
T4 sequence (Q96AX9 whole entry, change not shown): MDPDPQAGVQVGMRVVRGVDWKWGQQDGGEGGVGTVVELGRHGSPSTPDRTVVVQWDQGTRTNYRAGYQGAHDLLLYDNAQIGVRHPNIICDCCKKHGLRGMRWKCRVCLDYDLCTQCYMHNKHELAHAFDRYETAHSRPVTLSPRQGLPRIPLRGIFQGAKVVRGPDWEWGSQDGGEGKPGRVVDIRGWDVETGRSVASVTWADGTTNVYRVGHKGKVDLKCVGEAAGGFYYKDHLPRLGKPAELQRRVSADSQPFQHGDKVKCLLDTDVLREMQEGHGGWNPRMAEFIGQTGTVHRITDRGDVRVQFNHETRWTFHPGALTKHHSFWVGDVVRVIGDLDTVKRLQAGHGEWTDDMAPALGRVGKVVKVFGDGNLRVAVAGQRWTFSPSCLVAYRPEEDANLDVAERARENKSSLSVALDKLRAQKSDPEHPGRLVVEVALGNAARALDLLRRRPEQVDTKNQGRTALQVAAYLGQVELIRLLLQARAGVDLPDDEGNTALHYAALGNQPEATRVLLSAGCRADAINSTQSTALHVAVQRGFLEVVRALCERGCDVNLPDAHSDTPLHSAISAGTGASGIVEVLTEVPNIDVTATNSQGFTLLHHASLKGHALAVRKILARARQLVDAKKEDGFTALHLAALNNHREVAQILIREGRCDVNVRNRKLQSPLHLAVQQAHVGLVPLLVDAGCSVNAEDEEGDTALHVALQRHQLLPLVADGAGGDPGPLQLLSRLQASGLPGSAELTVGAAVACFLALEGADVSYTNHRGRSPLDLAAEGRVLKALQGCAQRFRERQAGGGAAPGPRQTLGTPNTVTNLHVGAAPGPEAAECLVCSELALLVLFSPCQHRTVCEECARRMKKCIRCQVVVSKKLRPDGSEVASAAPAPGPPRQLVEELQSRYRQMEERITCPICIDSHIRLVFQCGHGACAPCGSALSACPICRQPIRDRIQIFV
T5 sequence (Q9HAT8 whole entry, change not shown): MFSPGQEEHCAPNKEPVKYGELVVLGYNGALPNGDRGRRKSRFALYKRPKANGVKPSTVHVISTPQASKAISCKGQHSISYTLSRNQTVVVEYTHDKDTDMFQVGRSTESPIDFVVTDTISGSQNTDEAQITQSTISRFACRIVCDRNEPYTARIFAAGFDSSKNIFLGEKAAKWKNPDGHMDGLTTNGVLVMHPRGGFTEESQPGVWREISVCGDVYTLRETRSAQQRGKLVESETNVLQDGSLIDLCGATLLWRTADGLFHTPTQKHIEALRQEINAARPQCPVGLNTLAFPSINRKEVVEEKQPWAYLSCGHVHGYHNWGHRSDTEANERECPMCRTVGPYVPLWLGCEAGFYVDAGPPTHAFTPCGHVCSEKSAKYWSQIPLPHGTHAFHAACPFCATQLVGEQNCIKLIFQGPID
T14 sequence (Q9C040 whole entry, change not shown): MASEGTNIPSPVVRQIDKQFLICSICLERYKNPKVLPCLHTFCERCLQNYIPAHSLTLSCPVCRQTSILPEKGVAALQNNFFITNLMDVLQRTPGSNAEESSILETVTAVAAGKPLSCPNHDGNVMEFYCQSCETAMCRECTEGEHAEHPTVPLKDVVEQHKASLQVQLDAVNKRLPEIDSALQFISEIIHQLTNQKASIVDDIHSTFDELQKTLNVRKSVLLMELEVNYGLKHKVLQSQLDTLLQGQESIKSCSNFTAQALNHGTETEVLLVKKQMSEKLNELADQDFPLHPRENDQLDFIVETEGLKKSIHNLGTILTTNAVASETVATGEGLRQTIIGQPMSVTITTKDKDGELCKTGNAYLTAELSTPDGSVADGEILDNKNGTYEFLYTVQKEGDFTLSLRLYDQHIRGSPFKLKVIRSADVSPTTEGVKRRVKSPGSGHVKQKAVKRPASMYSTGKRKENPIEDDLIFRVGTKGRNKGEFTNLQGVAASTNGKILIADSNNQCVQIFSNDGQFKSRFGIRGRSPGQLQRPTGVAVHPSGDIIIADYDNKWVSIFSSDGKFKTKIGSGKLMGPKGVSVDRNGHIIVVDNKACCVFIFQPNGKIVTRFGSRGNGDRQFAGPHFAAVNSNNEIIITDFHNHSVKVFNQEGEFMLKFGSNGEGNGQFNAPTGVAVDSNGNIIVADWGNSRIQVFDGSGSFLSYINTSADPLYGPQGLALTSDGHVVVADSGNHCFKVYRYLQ
T6 sequence (P14373 whole entry, change not shown): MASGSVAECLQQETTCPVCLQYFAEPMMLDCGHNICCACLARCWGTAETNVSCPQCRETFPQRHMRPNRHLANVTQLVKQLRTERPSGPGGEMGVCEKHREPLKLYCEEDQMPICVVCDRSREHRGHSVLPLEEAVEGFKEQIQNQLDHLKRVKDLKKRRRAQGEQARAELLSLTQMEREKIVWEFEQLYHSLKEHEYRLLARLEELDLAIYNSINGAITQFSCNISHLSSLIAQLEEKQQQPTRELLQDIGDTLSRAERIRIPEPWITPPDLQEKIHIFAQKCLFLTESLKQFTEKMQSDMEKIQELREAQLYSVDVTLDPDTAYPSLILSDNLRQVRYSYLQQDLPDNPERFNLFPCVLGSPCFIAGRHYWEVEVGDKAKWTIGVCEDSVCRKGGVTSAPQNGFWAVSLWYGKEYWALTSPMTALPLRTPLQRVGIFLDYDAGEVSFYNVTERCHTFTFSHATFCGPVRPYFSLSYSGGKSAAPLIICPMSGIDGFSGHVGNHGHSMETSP
T11 sequence (Q96EP0 whole entry, change not shown): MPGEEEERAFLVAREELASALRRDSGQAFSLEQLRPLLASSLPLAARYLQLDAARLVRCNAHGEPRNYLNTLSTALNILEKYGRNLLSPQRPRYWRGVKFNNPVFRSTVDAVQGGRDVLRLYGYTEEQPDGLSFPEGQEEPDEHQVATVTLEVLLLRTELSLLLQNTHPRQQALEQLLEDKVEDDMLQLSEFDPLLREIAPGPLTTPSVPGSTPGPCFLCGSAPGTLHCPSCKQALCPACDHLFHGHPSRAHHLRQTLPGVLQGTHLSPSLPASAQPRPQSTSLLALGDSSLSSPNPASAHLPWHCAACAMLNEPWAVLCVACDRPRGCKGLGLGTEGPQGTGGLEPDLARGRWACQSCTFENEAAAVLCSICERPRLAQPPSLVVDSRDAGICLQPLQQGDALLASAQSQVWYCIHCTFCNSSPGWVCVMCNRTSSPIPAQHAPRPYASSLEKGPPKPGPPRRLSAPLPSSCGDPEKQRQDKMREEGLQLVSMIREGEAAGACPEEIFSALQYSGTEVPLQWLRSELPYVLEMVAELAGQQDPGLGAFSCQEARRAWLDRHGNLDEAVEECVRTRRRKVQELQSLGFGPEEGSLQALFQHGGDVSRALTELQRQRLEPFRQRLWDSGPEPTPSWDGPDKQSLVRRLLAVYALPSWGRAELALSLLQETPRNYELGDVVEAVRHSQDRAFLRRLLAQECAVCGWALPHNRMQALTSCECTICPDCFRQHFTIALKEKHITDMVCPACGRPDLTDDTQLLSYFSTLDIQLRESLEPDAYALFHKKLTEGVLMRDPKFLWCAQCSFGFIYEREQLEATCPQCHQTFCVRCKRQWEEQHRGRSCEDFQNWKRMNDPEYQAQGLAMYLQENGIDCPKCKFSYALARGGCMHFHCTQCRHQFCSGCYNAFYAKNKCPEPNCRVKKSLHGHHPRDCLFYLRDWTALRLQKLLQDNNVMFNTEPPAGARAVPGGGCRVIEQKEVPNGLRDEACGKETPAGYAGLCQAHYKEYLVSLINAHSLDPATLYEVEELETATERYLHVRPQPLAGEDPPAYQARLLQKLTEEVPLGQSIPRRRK

inhibition at 100 µM (UniProt Q149N8): 41% | inhibition at 100 µM (UniProt Q5VTB9): 2% | inhibition at 100 µM (UniProt Q8N653): 11% | percent inhibition (UniProt Q96AX9; 100 uM): 9% | inhibition at 100 µM (UniProt Q96AX9; read-out: percent inhibition): 11% | inhibition at 100 µM (UniProt Q9HAT8; 100 uM, read-out: KB05_100 uM_percent_inhibition): 15% | inhibition at 500 µM (UniProt Q9HAT8; 500 uM, read-out: KB05_500 uM_percent_inhibition): 63%
Compound: C=CC(=O)N(c1ccccc1)c1ccc(Br)cc1 [KB05]

Compound: O=C(CCl)Nc1cc(C(F)(F)F)cc(C(F)(F)F)c1 [KBO3]
KB03_100 uM_percent_inhibition (UniProt P14373): 13% | percent inhibition (UniProt Q86XN8): 48% | KB03_100 uM_percent_inhibition (UniProt Q9C019): 18%

Compound: COc1ccc2c(c1)CCCN2C(=O)CCl [KB02]
percent inhibition (UniProt O15344): 24% | inhibition at 100 µM (UniProt Q7Z6E9): 23% | percent_inhibition (UniProt Q96EP0): 24% | percent inhibition (UniProt Q96PU5; 100 uM): 33% | inhibition at 100 µM (UniProt Q96PU5; read-out: percent inhibition): 30% | inhibition at 500 µM (UniProt Q9BYV6): 1% | inhibition at 100 µM (UniProt Q9C040; 100 uM, read-out: KB02_100 uM_percent_inhibition): 20% | inhibition at 500 µM (UniProt Q9C040; 500 uM, read-out: KB02_500 uM_percent_inhibition): 32% | inhibition at 100 µM (UniProt Q9NRJ4): 28%
